This note sets out measurements from ChEMBL document CHEMBL1141883 (J Med Chem, 2005).

Some results are limits rather than exact numbers.

Assay [1] has as its target Cyclin-dependent kinase 5/CDK5 activator 1 (Homo sapiens, UniProt Q00535). Description: Inhibition of Cyclin-dependent kinase 5-p25nck5a. Type of assay: protein-complex assay.
The target of assay [2] is Glycogen synthase kinase-3 (Homo sapiens, UniProt P49840+P49841). Description: Inhibition of glycogen synthase kinase 3. Type of assay: protein assay.
Assay [3] has as its target Cyclin-dependent kinase 1/cyclin B (Homo sapiens, UniProt P06493). The assay is described as follows: Inhibition of cyclin-dependent kinase 1/cyclinB. The class given is protein-complex assay.
Assay [4] has as its target Cyclin-dependent kinase 6 (Homo sapiens, UniProt Q00534). Description: Inhibition of human cyclin-dependent kinase 6 complex with a virus-encoded cyclin from herpesvirus saimiri (Vcyclin).

Chain of Cyclin-dependent kinase 6 (Q00534 whole entry): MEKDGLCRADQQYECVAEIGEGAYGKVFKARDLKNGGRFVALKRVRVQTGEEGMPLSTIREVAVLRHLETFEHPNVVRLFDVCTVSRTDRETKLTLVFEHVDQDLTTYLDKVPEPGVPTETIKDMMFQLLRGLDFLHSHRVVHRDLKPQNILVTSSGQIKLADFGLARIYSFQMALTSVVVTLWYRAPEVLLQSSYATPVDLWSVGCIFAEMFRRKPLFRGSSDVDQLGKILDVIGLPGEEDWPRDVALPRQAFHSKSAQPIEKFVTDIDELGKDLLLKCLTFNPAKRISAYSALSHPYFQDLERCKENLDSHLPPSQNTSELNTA
Chain of Cyclin-dependent kinase 5/CDK5 activator 1 (Q00535 whole entry): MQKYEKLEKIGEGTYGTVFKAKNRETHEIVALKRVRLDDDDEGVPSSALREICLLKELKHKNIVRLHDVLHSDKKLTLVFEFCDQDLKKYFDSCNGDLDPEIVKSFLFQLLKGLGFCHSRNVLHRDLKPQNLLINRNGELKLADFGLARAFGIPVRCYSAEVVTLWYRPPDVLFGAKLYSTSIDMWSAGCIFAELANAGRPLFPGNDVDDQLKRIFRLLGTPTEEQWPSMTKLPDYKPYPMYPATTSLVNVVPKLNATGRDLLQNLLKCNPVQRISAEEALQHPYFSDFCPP
Chain of Cyclin-dependent kinase 5/CDK5 activator 1 (Q15078 whole entry, further chain): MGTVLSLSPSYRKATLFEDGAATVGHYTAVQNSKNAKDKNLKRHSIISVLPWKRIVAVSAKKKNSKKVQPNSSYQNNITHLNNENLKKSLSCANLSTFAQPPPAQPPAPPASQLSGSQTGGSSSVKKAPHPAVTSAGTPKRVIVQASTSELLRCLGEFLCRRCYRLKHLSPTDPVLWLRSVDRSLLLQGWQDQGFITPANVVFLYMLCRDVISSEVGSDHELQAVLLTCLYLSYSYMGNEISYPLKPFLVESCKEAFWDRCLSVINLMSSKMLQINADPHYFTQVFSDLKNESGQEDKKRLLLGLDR

Regarding `O=c1c(O)c(-c2ccc(O)c(O)c2)oc2cc(O)ccc12` [FISETIN], the IC50 in assay [1] was 0.57 µM; in assay [2], 0.42 µM; in assay [3] it was 0.79 µM.

`O=c1c(O)c(-c2ccc(O)cc2)oc2cc(O)cc(O)c12` [KAEMPFEROL]: the IC50 in assay [4] stood at 22 µM; in assay [1] it was 51 µM; in assay [2] it was 3.5 µM; in assay [3], 41 µM.

Regarding `O=c1c(O)c(-c2ccc(O)c(O)c2)oc2cc(O)cc(O)c12` [QUERCETIN], the IC50 in assay [4] amounted to 25 µM; in assay [2] it was 2.1 µM; in assay [3] it was 75 µM.

As for `O=c1cc(-c2ccc(O)cc2)oc2cc(O)cc(O)c12` [APIGENIN], the IC50 turned out to be 1.7 µM in assay [4], 1.6 µM in assay [1], 1.4 µM in assay [2] and 4 µM in assay [3].

As to `O=c1cc(-c2ccccc2)oc2cc(O)cc(O)c12` [CHRYSIN], the concentration for half-maximal inhibition (IC50) in assay [4] was found to be 6 µM; in assay [1] it was 3.1 µM; in assay [2], 7.2 µM; in assay [3], 7.1 µM.

Regarding `O=c1cc(-c2ccc(O)c(O)c2)oc2cc(O)cc(O)c12` [LUTEOLIN], the IC50 in assay [4] is over 300 µM; in assay [1], 3.8 µM; in assay [2] it was 0.8 µM.
